Results on five molecules are retold here after article PMC8149447, “Caerulomycin and collismycin antibiotics share a trans-acting flavoprotein-dependent assembly line for 2,2’-bipyridine formation” (Nature Communications, 2021).

By Kd is commonly meant the free concentration of one partner at which half of the binding sites on the other are occupied at equilibrium, for simple one-to-one binding. Read a high Kd as a looser complex.

Assay [1] deals with N-terminally thioredoxin (Trx)-tagged Ct domain of the CaeA2 NRPS module (A. cyanogriseus (CAE-producing strain)). In words: ITC; MicroCal-ITC200, 25°C; 60 μM CaeA2 construct in the cell, 400 μM flavoprotein in the syringe; 50 mM Tris-HCl pH 7.5, 100 mM NaCl, 0.1 mM TCEP, 5% glycerol; single binding site model. (In general: ITC needs no label: the signal is the heat of the interaction.)

Assay [2] concerns the target T1, ColA3 (Streptomyces filamentosus, UniProt A0ABY4UPY4).
T1 construct: gene K7395_06055; full length C-A-PCP module, N-terminal 6xHis (or MBP-6xHis) tag
In words: HPLC / MS of product […] (as IAA derivative […]) or […]. Format: biochemical. The conditions noted are these: reconstituted with CaeA1, CaeA2, CaeB1; picolinic acid, malonyl-CoA, L-cysteine, ATP, Mg, pH 7.5, 30 C.

For assay [3], the target named is T2, CaeB1 (Actinoalloteichus caeruleus, UniProt M1F383, S168A).
T2 construct: full length, N-terminal 6xHis (or MBP-6xHis) tag, expressed in E. coli; noncovalent FAD
T2 sequence (M1F383 entry or part of it S168A): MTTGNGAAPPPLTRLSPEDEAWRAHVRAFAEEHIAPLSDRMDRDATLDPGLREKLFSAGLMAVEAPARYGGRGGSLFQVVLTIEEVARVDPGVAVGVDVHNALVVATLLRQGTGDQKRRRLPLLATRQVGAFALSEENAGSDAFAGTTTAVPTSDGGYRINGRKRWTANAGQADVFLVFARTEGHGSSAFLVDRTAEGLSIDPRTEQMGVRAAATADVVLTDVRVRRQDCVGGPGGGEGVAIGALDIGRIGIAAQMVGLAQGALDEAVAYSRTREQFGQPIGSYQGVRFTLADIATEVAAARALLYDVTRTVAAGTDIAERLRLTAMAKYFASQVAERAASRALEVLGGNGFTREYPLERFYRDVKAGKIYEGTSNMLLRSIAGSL
In words: absorbance spectrum; activity rescue by added FAD. It counts as biochemical. To be noted: noncovalent; excess FAD added in the product assay.

Assay [4] has as its target T3, CaeB1 (Actinoalloteichus caeruleus, UniProt M1F383, E372L).
T3 construct: full length, N-terminal 6xHis (or MBP-6xHis) tag, expressed in E. coli; noncovalent FAD
The assay is described as follows: absorbance spectrum of purified protein. To be noted: noncovalent; co-purified, oxidized form. Format: binding.

The target in assay [5] is T4, CaeB1 (Actinoalloteichus caeruleus, UniProt M1F383).
T4 construct: full length, N-terminal 6xHis (or MBP-6xHis) tag, expressed in E. coli; noncovalent FAD
T4 sequence (M1F383 1-386): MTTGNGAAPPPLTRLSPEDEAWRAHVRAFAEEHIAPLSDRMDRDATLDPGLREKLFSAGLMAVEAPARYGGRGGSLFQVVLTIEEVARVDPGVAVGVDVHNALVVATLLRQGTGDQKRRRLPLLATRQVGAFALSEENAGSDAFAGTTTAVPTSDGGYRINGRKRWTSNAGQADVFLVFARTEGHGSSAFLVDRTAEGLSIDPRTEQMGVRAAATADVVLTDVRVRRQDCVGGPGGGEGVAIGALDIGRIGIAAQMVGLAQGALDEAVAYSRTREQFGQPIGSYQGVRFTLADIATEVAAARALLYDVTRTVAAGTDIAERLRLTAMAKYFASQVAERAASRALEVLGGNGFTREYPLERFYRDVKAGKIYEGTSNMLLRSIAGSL
In words: absorbance spectrum; heat denaturation and HPLC-HR-MS. Format: binding. The conditions noted are these: noncovalent; co-purified, oxidized form.

For assay [6], the target named is T5, ColB1 (Streptomyces filamentosus, UniProt A0ABY4UQ20).
T5 construct: gene K7395_06050; full length, N-terminal 6xHis (or MBP-6xHis) tag; noncovalent FAD
T5 sequence (A0ABY4UQ20 1-394): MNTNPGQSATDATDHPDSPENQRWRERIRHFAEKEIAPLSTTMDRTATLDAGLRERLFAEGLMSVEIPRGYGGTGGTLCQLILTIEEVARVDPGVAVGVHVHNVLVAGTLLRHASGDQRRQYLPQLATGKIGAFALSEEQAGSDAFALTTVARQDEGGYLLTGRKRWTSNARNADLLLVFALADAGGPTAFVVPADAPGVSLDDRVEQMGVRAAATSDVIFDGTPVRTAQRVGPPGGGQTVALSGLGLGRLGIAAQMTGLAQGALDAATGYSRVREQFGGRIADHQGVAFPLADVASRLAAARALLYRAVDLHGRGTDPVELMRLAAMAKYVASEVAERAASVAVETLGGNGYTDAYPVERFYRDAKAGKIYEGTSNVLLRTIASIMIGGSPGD
In words: heat denaturation and HPLC-DAD / ESI-HR-MS. It counts as binding. To be noted: noncovalent; co-purified.

For assay [7], the target named is T6, MBP-fused CaeB1 variant (A. cyanogriseus (CAE-producing strain), UniProt M1F383 1-386).
T6 construct: CaeB1, flavin (FAD)-dependent protein of the caerulomycin (cae) biosynthetic gene cluster; also called trans-acting flavoprotein; not shown: MBP, N-terminal, kept
T6 sequence (looked up): T4 sequence (M1F383 1-386)
In words: ITC; MicroCal-ITC200, 25°C; 60 μM CaeA2 construct in the cell, 400 μM flavoprotein in the syringe; 50 mM Tris-HCl pH 7.5, 100 mM NaCl, 0.1 mM TCEP, 5% glycerol; single binding site model. To be noted: both partners purified.

For assay [8], the target named is Ct-PCP didomain of the CaeA2 NRPS module (A. cyanogriseus (CAE-producing strain)). The assay is described as above.

T1 sequence (A0ABY4UPY4 entry or part of it): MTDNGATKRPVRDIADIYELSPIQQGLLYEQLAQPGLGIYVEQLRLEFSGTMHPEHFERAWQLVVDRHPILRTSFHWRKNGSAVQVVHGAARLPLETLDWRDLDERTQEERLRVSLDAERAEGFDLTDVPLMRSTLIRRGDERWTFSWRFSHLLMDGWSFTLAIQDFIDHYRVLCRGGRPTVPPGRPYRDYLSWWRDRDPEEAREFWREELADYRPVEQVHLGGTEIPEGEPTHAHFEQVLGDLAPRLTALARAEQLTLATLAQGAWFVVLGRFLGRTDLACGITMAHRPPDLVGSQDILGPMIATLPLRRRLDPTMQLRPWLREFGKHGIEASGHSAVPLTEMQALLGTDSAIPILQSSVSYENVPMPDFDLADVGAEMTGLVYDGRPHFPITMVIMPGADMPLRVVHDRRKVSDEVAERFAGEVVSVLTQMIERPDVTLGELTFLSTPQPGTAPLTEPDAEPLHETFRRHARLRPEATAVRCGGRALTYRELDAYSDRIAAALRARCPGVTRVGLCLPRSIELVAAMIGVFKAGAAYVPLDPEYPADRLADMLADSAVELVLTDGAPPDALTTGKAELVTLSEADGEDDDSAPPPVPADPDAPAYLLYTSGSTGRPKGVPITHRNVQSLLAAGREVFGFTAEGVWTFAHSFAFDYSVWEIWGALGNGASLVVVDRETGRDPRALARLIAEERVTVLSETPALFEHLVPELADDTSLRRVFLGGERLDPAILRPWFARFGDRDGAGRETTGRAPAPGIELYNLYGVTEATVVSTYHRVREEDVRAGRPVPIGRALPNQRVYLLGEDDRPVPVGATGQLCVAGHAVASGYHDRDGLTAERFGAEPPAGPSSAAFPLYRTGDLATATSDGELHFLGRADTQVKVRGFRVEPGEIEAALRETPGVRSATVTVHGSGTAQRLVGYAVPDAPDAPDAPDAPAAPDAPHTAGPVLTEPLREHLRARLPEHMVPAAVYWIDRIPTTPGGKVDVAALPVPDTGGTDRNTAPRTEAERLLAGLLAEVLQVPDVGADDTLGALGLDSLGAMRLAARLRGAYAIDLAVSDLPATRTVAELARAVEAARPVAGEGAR
T3 sequence (M1F383 entry or part of it E372L): as the sequence (M1F383 entry or part of it S168A) above, with A168S, E372L counted along it

Turning to ColB1 (enzyme), the Kd in assay [1] stood at 1180 nM.

Regarding `CC(C)C[C@H](N)C(=O)O` [L-leucine], the “HPLC / MS of product 15 (as IAA derivative 17) or 16” value in assay [2] was “incubating CaeA1, CaeA2, and CaeB1 with ColA3 in the presence of the necessary substrates”.

Regarding `Cc1cc2nc3c(=O)[nH]c(=O)nc-3n(C[C@H](O)[C@H](O)[C@H](O)COP(=O)(O)OP(=O)(O)OC[C@H]3O[C@@H](n4cnc5c(N)ncnc54)[C@H](O)[C@@H]3O)c2cc1C` [FAD], the FAD-binding ability entry in assay [3] is given as “the latter variant was nearly colorless, indicating the loss of FAD-binding ability”. Also, in assay [4], the “absorbance spectrum of purified protein” value was “shares with the wild-type protein a light yellow color and an absorbance spectrum characteristic of FAD”. In assay [5], the “absorbance spectrum; heat denaturation and HPLC-HR-MS” value is given as “Purified CaeB1, which appeared light yellow, was determined to bind oxidized flavin adenine dinucleotide (FAD)”. The “heat denaturation and HPLC-DAD / ESI-HR-MS” value in assay [6] was “ColB1, the homolog of trans-acting flavoprotein CaeB1 that also noncovalently binds a FAD cofactor”.

B1: N-terminally thioredoxin (Trx)-tagged Ct domain of the CaeA2 NRPS module (domain or fragment)
chain: EQEADGTVAPFTPHQAALVAEGAVDWITVEAAASDLDPALAERALREIADRHPALRLRSGTRDDGTPGQYDGGSPGDGLFSEIDLSGLAEDARDDALAEIVAEMSEEVGLAEREPVKLAVVRAGADDVRLLWLAAGAALDDTSWRLLLAEFGRAYQQLAERGSIDWTGMPESVLGWVATQEGAAPPPSVETVAFTGELRTVLDADVTTAFAEATFGAYHLELGEAVAAALTVAARAWPGREPAVTVERSLRTATTDEALGRFTEVTTLDVAAEAVADTLTGVKRAYRDVVRPAPAHPRVHLRDVRSGDWRPTAGPLSPAGLSSPVSTATTPEVLAEVGAAVVGGELVLRWRHTTDAAEATALAEAFTEAVETITEHCRQAGSGSYEPSDFPLAGVDPDELSALLSTLEK
modifications: Trx/6xHis tag omitted; Ct primers not in the excerpt; start placed just after the Carrier feature (2001-2075), in line with the 58 kDa Trx fusion and the 44 kDa difference between CaeA2 and …
B1 yielded a Kd in assay [7] of 530 ± 120 nM.

B2: MBP-fused CaeB1 variant (enzyme)
chain: T4 sequence (M1F383 1-386)
Turning to B2, the Kd in assay [8] was 420 nM.
